One experiment addresses T1, FLT3 (Homo sapiens, UniProt P36888).
T1 sequence (P36888 27-993): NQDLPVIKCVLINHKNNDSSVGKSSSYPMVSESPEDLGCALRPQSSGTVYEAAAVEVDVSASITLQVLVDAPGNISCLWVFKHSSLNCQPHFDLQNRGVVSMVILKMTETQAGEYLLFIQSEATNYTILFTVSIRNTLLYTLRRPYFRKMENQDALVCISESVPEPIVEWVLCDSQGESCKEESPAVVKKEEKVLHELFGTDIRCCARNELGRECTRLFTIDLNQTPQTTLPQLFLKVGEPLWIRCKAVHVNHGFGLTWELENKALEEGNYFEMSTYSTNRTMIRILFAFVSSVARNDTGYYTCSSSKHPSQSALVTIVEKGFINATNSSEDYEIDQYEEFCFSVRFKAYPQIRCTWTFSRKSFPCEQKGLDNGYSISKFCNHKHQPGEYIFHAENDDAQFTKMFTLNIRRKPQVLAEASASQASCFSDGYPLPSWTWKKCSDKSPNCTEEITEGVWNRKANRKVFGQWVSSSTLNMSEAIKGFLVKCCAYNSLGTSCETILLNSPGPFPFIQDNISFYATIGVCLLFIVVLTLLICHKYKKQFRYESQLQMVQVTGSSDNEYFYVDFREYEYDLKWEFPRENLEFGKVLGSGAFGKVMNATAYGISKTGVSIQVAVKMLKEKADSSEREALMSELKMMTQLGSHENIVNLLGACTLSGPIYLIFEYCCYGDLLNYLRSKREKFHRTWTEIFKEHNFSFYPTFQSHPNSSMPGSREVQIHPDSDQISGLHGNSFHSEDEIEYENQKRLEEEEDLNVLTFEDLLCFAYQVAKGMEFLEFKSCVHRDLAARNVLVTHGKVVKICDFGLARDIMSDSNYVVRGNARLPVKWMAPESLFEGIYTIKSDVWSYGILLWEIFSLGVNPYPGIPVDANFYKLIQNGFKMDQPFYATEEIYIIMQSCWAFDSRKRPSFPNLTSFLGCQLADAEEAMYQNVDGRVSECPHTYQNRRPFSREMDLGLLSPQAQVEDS
The experiment is described as follows: TR-FRET kinase activity assay, FLT3. Particulars: ATP at Km, 60 minutes. The class given is biochemical. In short, it runs like this: (§1)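 Recombinant human kinases, fluorescent peptide substrate, ATP at Km; 1 h RT, pH 7.5. EDTA-quenched, Eu antibody added, TR-FRET read; IC50 determined.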
(TR-FRET usually uses a lanthanide donor and a delayed reading to cut background.)

The next experiment addresses T2, TYRO3 (Homo sapiens, UniProt Q06418).
T2 sequence (Q06418 41-890): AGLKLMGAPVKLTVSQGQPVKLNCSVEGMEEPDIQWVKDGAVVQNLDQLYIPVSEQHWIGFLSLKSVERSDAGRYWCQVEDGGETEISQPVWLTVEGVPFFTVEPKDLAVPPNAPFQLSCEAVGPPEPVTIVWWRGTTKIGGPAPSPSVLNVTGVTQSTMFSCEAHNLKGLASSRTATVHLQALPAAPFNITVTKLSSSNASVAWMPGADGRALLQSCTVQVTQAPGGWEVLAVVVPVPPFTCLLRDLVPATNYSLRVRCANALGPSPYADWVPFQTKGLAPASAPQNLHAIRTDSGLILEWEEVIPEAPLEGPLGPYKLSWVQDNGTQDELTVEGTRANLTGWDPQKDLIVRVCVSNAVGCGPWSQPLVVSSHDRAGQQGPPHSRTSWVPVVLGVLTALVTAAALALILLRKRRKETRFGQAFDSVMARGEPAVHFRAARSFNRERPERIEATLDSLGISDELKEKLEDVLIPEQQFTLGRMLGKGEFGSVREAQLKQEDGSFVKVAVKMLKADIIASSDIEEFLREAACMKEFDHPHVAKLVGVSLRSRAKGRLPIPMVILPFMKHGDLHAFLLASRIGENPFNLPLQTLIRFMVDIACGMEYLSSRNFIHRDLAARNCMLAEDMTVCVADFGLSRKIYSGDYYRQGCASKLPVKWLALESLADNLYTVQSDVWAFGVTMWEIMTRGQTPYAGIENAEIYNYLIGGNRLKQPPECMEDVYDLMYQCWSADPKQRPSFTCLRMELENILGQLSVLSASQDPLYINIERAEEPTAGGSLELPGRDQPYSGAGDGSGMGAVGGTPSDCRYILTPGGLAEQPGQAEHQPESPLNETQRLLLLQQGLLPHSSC
Description: TR-FRET kinase activity assay, TYRO3. The class given is biochemical. Particulars: ATP at Km, 60 minutes. The gist of the method: as §1

What is called IC50 is the point on the concentration scale where inhibition reaches its midpoint. A higher IC50 goes with weaker potency in that assay.

On to `COC[C@H](C)Nc1ncc2c(-c3cnn(Cc4cncc(C)n4)c3)cc([C@H]3CC[C@H](O)CC3)n2n1` [Compound 329], for which the results for the concentration for half-maximal inhibition (IC50) on FLT3 and against TYRO3 were 0.1 to 1 µM and at most 0.1 µM, respectively.
For `COC[C@H](C)Nc1ncc2c(-c3cnn(C4CC(C(=O)OC)C4)c3)cc([C@H]3CC[C@H](O)CC3)n2n1` (stereo partly shown) [Compound 330], the figures for the IC50 on FLT3 and against TYRO3 were 0.1 to 1 µM and at most 0.1 µM, respectively.
For `COC[C@H](C)Nc1ncc2c(-c3cnn(C(C)(C)C(=O)N4CCS(=O)(=O)CC4)c3)cc([C@H]3CC[C@H](O)CC3)n2n1` [Compound 331, 1-(1,1-dioxidothiomorpholino)-2-(4-(7-((trans)-4-hydroxycyclohexyl)-2-(((S)-1-methoxypropan-2-yl)amino)pyrrolo[2,1-f][1,2,4]triazin-5-yl)-1H-pyrazol-1-yl)-2-methylpropan-1-one], the concentration for half-maximal inhibition (IC50) is 0.1 to 1 µM against FLT3 and at most 0.1 µM on TYRO3.
In the same order, the values of `COC[C@H](C)Nc1ncc2c(-c3cnn(Cc4cn[nH]c4)c3)cc([C@H]3CC[C@H](O)CC3)n2n1` [Compound 332] are 0.1 to 1 µM and at most 0.1 µM.
In the same order, the values of `COC[C@H](C)Nc1ncc2c(-c3cnn(Cc4cc(C)nn4C)c3)cc([C@H]3CC[C@H](O)CC3)n2n1` [Compound 333] are 0.1 to 1 µM and at most 0.1 µM.
For `CNC(=O)c1ncc(-c2cc([C@H]3CC[C@H](O)CC3)n3nc(N[C@@H](C)COC)ncc23)cn1` [Compound 334], the IC50 against FLT3 is 1 to 10 µM; against TYRO3, at most 0.1 µM.
In the same order, the values of `CNC(=O)c1cc(-c2cc([C@H]3CC[C@H](O)CC3)n3nc(N[C@@H](C)COC)ncc23)cc(C)n1` [Compound 335] are 1 to 10 µM and at most 0.1 µM.
`CNS(=O)(=O)c1ccc(-c2cc([C@H]3CC[C@H](O)CC3)n3nc(N[C@@H](C)COC)ncc23)cn1` [Compound 336]: the concentration for half-maximal inhibition (IC50) against FLT3 is 0.1 to 1 µM; against TYRO3, at most 0.1 µM.
In the same order, the values of `COC[C@H](C)Nc1ncc2c(-c3ccnc(NC(C)C)c3)cc([C@H]3CC[C@H](O)CC3)n2n1` [Compound 337] are 0.1 to 1 µM and at most 0.1 µM.
In the same order, the values of `COC[C@H](C)Nc1ncc2c(-c3ccnc(N4CCN(S(C)(=O)=O)CC4)c3)cc([C@H]3CC[C@H](O)CC3)n2n1` [Compound 338] are 0.1 to 1 µM and at most 0.1 µM.
With `COC[C@H](C)Nc1ncc2c(-c3ccnc(N4CCCC4)c3)cc([C@H]3CC[C@H](O)CC3)n2n1` [Compound 339], the figures for the IC50 on FLT3 and on TYRO3 were 0.1 to 1 µM and at most 0.1 µM, respectively.
For `COC[C@H](C)Nc1ncc2c(-c3ccnc(N4CCNC(=O)C4)c3)cc([C@H]3CC[C@H](O)CC3)n2n1` [Compound 340], the results for the IC50 on FLT3 and on TYRO3 were 0.1 to 1 µM and at most 0.1 µM, respectively.
In the case of `COC[C@H](C)Nc1ncc2c(-c3ccnc(OC4CCCN(C)C4)c3)cc([C@H]3CC[C@H](O)CC3)n2n1` (stereo partly shown) [Compound 341], the IC50 against FLT3 is 0.1 to 1 µM; at TYRO3, at most 0.1 µM.
In the same order, the values of `COC[C@H](C)Nc1ncc2c(-c3ccnc(OC4CCN(C)CC4)c3)cc([C@H]3CC[C@H](O)CC3)n2n1` [Compound 342] are 0.1 to 1 µM and at most 0.1 µM.
Regarding `COC[C@H](C)Nc1ncc2c(-c3ccnc(OC(C)C)c3)cc([C@H]3CC[C@H](O)CC3)n2n1` [Compound 343], the values for the IC50 on FLT3 and against TYRO3 were 1 to 10 µM and at most 0.1 µM, respectively.
In the same order, the values of `COC[C@H](C)Nc1ncc2c(-c3ccnc(N4CCN(C(C)=O)CC4)c3)cc([C@H]3CC[C@H](O)CC3)n2n1` [Compound 344] are 0.1 to 1 µM and at most 0.1 µM.
In the same order, the values of `COCCOc1cc(-c2cc([C@H]3CC[C@H](O)CC3)n3nc(N[C@@H](C)COC)ncc23)ccn1` [Compound 345] are 1 to 10 µM and at most 0.1 µM.
